Tested on: 636577-100-R-J1-PDC complex spheroid viability
Experiment: Anticancer human tumor 636577-100-R-J1-PDC patient-derived endometrial adenocarcinoma cell line growth inhibition [GQUAD]
Conditions: for IC50: curve of first compound; for viability, T/C: stronger effect = lower value
Outline: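 Multi-cell-type spheroids of tumor cells with HUVEC and mesenchymal stem cells, treated with drug combinations. Concentrations descend in half-log steps from near clinical Cmax, or from 10 microM where Cmax is unknown; viability read-out.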
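Note: viability read after seven days of drug exposure.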
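Throughout, for viability, T/C: luminescence signal used as a proxy for viable cells; 100% = DMSO vehicle control wells.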

O=c1[nH]cc(F)c(=O)[nH]1 + CN(C)c1ccc(Nc2c3ccc(NC(=O)CCN4CCCC4)cc3nc3cc(NC(=O)CCN4CCCC4)ccc23)cc1
IC50 (second compound 0.0316 µM): 4.91 µM
IC50 (second compound 0.1 µM): 3.69 µM
IC50 (second compound 0.316 µM): 5.53 µM
IC50 (second compound 1 µM): 3.16 µM
IC50 (second compound 3.16 µM): < 0.0316 µM
IC50 (second compound 10 µM): < 0.0316 µM
viability, T/C (second compound 0.0316 µM, first compound 0.0316 µM): 83.1%
viability, T/C (second compound 0.0316 µM, first compound 0.1 µM): 85.7%
viability, T/C (second compound 0.0316 µM, first compound 0.316 µM): 87.9%
viability, T/C (second compound 0.0316 µM, first compound 1 µM): 79.5%
viability, T/C (second compound 0.0316 µM, first compound 3.16 µM): 62.5%
viability, T/C (second compound 0.0316 µM, first compound 10 µM): 30.1%
viability, T/C (second compound 0.1 µM, first compound 0.0316 µM): 105%
viability, T/C (second compound 0.1 µM, first compound 0.1 µM): 110%
viability, T/C (second compound 0.1 µM, first compound 0.316 µM): 72.3%
viability, T/C (second compound 0.1 µM, first compound 1 µM): 63.6%
viability, T/C (second compound 0.1 µM, first compound 3.16 µM): 67.5%
viability, T/C (second compound 0.1 µM, first compound 10 µM): 27.4%
viability, T/C (second compound 0.316 µM, first compound 0.0316 µM): 88%
viability, T/C (second compound 0.316 µM, first compound 0.1 µM): 75.3%
viability, T/C (second compound 0.316 µM, first compound 0.316 µM): 75.6%
viability, T/C (second compound 0.316 µM, first compound 1 µM): 79.9%
viability, T/C (second compound 0.316 µM, first compound 3.16 µM): 69.5%
viability, T/C (second compound 0.316 µM, first compound 10 µM): 29.2%
viability, T/C (second compound 1 µM, first compound 0.0316 µM): 67.5%
viability, T/C (second compound 1 µM, first compound 0.1 µM): 88.8%
viability, T/C (second compound 1 µM, first compound 0.316 µM): 70.5%
viability, T/C (second compound 1 µM, first compound 1 µM): 65.3%
viability, T/C (second compound 1 µM, first compound 3.16 µM): 50.8%
viability, T/C (second compound 1 µM, first compound 10 µM): 26%
viability, T/C (second compound 3.16 µM, first compound 0.0316 µM): 43.7%
viability, T/C (second compound 3.16 µM, first compound 0.1 µM): 44.2%
viability, T/C (second compound 3.16 µM, first compound 0.316 µM): 49.5%
viability, T/C (second compound 3.16 µM, first compound 1 µM): 32.1%
viability, T/C (second compound 3.16 µM, first compound 3.16 µM): 27.7%
viability, T/C (second compound 3.16 µM, first compound 10 µM): 21%
viability, T/C (second compound 10 µM, first compound 0.0316 µM): 7%
viability, T/C (second compound 10 µM, first compound 0.1 µM): 6.98%
viability, T/C (second compound 10 µM, first compound 0.316 µM): 6.89%
viability, T/C (second compound 10 µM, first compound 1 µM): 6.25%
viability, T/C (second compound 10 µM, first compound 3.16 µM): 6.48%
viability, T/C (second compound 10 µM, first compound 10 µM): 3.81%

From PubChem BioAssay AID2060504 (Molecular Pharmacology Branch, DTP, NCI, 2025)
